The source of these data is publication PMC11161644, “An effective and rapidly degradable disinfectant from disinfection byproducts” (Nature Communications, 2024).

For series [1], the system named is S. aureus (ATCC 25923). The experiment in a line: Inactivation of S. aureus (contact time 5 min). It is filed as cell-based, Staphylococcus aureus. The following applies: for log reduction at 300 µg/mL: Staphylococcus aureus, ATCC25923, 5 min, dose 300 mg L-1, pH 7.2, contact time 5 min; for Dose for achieving 3-log inactivation of S. aureus / S. aureus inactivation rate constant k: pH 7.2, contact time 5 min. As for the experimental part: (§1) The chemicals and reagents used are detailed in Supplementary Note 1. The bacteria E. coli (ATCC 25922) and S. aureus (ATCC 25923) were cultured aerobically in Luria-Bertani broth (Sigma-Aldrich) and Tryptone Soya broth (Oxoid), respectively, at 37 °C for 16 h. The fungus C. albicans (ATCC 14053) was aerobically cultured in Sabouraud Dextrose broth (Difco) at 37 °C for 24 h. The microorganism cells were harvested by centrifugation at 1200×g (10 min, 4 °C) and resuspended in phosphate-buffered saline (PBS, 10 mM, pH 7.2). The disinfection experiments were performed in PBS solutions (10 mM, pH 7.2) with an initial concentration of E. coli, S. aureus, or C. albicans of 10^6‒10^7 cells per milliliter. A contact time of 5 min was used in accordance with the recommended time range of 0.25–10 min by USEPA for surface disinfection. Preliminary tests were conducted to determine the appropriate range of DBP doses. The appropriate dose range was established when the lowest and highest doses could achieve <1-log and >3-log of microbial inactivation, respectively. Based on the preliminary results, a series of doses of DBPs were added to the cell suspensions at room temperature (22 ± 1 °C). After the contact time of 5 min, the microorganism cells were enumerated following a membrane filter method. Briefly, serial 10-fold dilutions were conducted for the disinfected samples and the control sample without disinfection. Each diluted suspension was subjected to filtration through 0.45-μm membrane, which was then placed on a petri dish. The Petri dishes containing E. coli, S. aureus, and C. albicans were incubated in m-FC medium (Becton Dickinson & Co) at 45 °C for 24 h, in Tryptone Soya broth at 37 °C for 24 h and in Sabouraud Dextrose broth at 37 °C for 24 h, respectively. After incubation, the colony-forming units within a statistically reasonable range (20–80) were counted.

For series [2], the system named is bacteriophage MS2 (ATCC 15597-B1). Description: Inactivation of bacteriophage MS2 (double-layer agar, contact time 5 min). Particulars: for log reduction at 300 µg/mL: Escherichia phage MS2, ATCC15597, 5 min, dose 300 mg L-1, pH 7.2, contact time 5 min; for Dose for achieving 3-log inactivation of MS2 / MS2 inactivation rate constant k: pH 7.2, contact time 5 min. It is filed as cell-based. On the procedure: The bacteriophage MS2 (ATCC 15597-B1) was propagated in the host E. coli (ATCC 15597) in Tryptone Soya broth at 37 °C for 16 h. The viruses were separated from the bacterial debris and purified by centrifuging the phage culture (4000×g, 10 min, 4 °C) and filtering the lysate with a 0.2 μm polyethersulfone sterile filter. The filtrate was then diluted in PBS (10 mM, pH 7.2) to an initial MS2 concentration of 10^9‒10^10 plaque-forming units […]. To initiate the disinfection experiments, a series of DBP doses were added to the MS2 suspension at room temperature (22 ± 1 °C). […] Briefly, serial 10-fold dilutions were conducted for the disinfected samples and the control sample without disinfection. Each dilution was mixed with the host E. coli in the soft agar and the mixture was immediately spread onto a Petri dish with Tryptone Soya agar. After the Petri dishes were incubated at 37 °C for 16 h, the plaque-forming units were counted. The disinfection experiments were performed in duplicate. All the materials for the disinfection experiments were autoclaved before use.

The test system of series [3] is C. albicans (ATCC 14053). The experiment in a line: Inactivation of C. albicans (contact time 5 min). It is filed as cell-based, Candida albicans. The following applies: for log reduction at 300 µg/mL: Candida albicans, ATCC14053, 5 min, dose 300 mg L-1, pH 7.2, contact time 5 min; for C. albicans inactivation rate constant k / Dose for achieving 3-log inactivation of C. albicans: pH 7.2, contact time 5 min. On the procedure: as §1

Series [4] deals with rat. The following applies: oral; cited from earlier work.
[5] abbreviates: pH 7.2, S. aureus, read-out: Log (N/N0).
[6] abbreviates: pH 7.2, MS2, read-out: Log (N/N0).
Setting [7] is: pH 7.2, C. albicans, read-out: Log (N/N0).

Where two headings read alike, the source gives them in different places.

As to `Oc1cc(Br)c(O)cc1Br` [2,5-DBHQ, 2,5-dibromohydroquinone], in series [1] (setting [5]), the log reduction at 300 µg/mL was 0.62.

For `Oc1ccc(Cl)cc1Cl` [2,4-DCPh, 2,4-Dichlorophenol], the log reduction at 300 µg/mL in series [2] (pH 7.2, read-out: Log (N/N0), MS2) was found to be 0.549; in series [1] (pH 7.2, read-out: Log (N/N0), S. aureus) it was 0.626; in series [3] (pH 7.2, read-out: Log (N/N0), C. albicans) it was 0.236.

On to `Cc1cc(O)cc(C)c1Cl` [PCMX, para-chloro-meta-xylenol, reference compound], for which, in series [2] (setting [6]), the log reduction at 300 µg/mL turned out to be 1.03. Moreover, in series [2], the “Dose for achieving 3-log inactivation of MS2” value is reported as 1010 mg L−1 and the “MS2 inactivation rate constant k” value came out at 600 µL/min/mg. The log reduction at 300 µg/mL in series [1] (setting [5]) came out at 3.04. Moreover, in series [1], the “Dose for achieving 3-log inactivation of S. aureus” value came out at 308 mg L−1 and the “S. aureus inactivation rate constant k” value was 3670 µL/min/mg. The log reduction at 300 µg/mL in series [3] (setting [7]) was determined as 3.49. Besides, in series [3], the “C. albicans inactivation rate constant k” value came out at 3670 µL/min/mg and the “Dose for achieving 3-log inactivation of C. albicans” value worked out at 320 mg L−1. Moreover, the 50% lethal dose (LD50) in series [4] is given as 3830 mg/kg.

Take `O=C1C=C(Cl)C(=O)C(Cl)=C1` [2,6-DCQ, 2,6-dichlorobenzoquinone]: in series [2], the “Dose for achieving 3-log inactivation of MS2” value stood at 46.1 mg L−1 and the “MS2 inactivation rate constant k” value amounted to 14200 µL/min/mg. In addition, in series [1], the “Dose for achieving 3-log inactivation of S. aureus” value was found to be 28.6 mg L−1 and the “S. aureus inactivation rate constant k” value came out at 20200 µL/min/mg. In series [3], the “C. albicans inactivation rate constant k” value turned out to be 31300 µL/min/mg and the “Dose for achieving 3-log inactivation of C. albicans” value is 35.4 mg L−1. Besides, the LD10 in series [4] is 500 mg/kg.

Regarding `Oc1ccc(I)cc1I` [2,4-DIPh, 2,4-diiodophenol], the log reduction at 300 µg/mL came out at 2.17 in series [2] (setting [6]), 4.49 in series [1] (setting [5]) and 5.49 in series [3] (setting [7]).

As to `Oc1cc(I)c(O)cc1I` [2,5-DIHQ, 2,5-diiodohydroquinone], the log reduction at 300 µg/mL stood at 1.11 in series [2] (setting [6]), 0.792 in series [1] (setting [5]) and 0.393 in series [3] (setting [7]).

For orientation: LD50 means the dose at which mortality reaches 50%.
